Results from patent US20060034941A1, “Organ preconditioning, arrest, protection, preservation and recovery” (priority 2002, published 2006).
Like-named read-outs stand apart in the source and are kept apart here.

Legend:
[1] = system: canine neutrophils stimulated by platelet activating factor; test: In vitro superoxide anion generation by PAF-activated neutrophils; format: cell-based; details: PAF 100 nmol; 0.1 to 10 uM L, 0.1 to 100 uM ADO; synergy at 1 uM, 5 uM and 10 uM
Experimental: PMNs were isolated using the Ficoll-Pacque (Sigma Chemical, St. Louis, Mo.) technique. The cells were adjusted to ˜9×10^7 cells/ml. […] Superoxide anion (—O.2) production by neutrophils stimulated by platelet activating factor (100 nmol) were determined by measuring the superoxide dismutase-inhibitable reduction of ferricytochrome c to ferrocytochrome c spectrophotometrically at 550 nm using a V-Max Microtiter Plate Reader (Molecular Devices, Palo Alto, Calif.). […] Concentrations indicated are final concentrations in each cuvette.

[2] = i.v., cited from earlier work
[3] = system: in vivo rabbit model; details: reduced MAP similar to CCPA; cited from earlier work
[4] = system: A-V nodal and SA pacemakers; details: cited from earlier work
[5] = target: human NK(1) receptor (Homo sapiens, UniProt P25103); details: cited from earlier work
Sequence of human NK(1) receptor (P25103 whole entry): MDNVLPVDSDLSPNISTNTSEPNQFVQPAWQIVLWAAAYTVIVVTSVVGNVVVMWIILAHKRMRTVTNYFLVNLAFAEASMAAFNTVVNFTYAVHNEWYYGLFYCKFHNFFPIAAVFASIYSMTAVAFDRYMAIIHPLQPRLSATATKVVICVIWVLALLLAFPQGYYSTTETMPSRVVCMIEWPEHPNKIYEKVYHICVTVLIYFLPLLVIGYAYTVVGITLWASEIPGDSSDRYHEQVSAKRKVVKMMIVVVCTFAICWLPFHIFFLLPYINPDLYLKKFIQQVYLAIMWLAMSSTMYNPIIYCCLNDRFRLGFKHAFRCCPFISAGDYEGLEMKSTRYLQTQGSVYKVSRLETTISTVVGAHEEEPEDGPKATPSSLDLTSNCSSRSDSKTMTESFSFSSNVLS

SMILES	superoxide anion generation [1]	effect on infarct size [3]	further results
CCN(CC)CC(=O)Nc1c(C)cccc1C [Lido-only, lidocaine]	reduce superoxide anion generation	–	maximum safe dose ([2]; with epinephrine): ~7 mg/kg; maximum safe dose ([2]; without epinephrine): approximately 4 mg/kg
CC(C)NCC(O)COc1ccc(CC(N)=O)cc1 (stereo not shown) [atenolol]	–	did not change infarct size	–
Nc1ncnc2c1ncn2[C@@H]1O[C@H](CO)[C@@H](O)[C@H]1O [Ado-only, adenosine]	reduce superoxide anion generation	–	effectiveness in slowing the conductance of A-V nodal relative to SA pacemakers [4]: 30 times
CCCCC#Cc1nc(N)c2ncn([C@@H]3O[C@H](C(=O)NCC)[C@@H](O)[C@H]3O)c2n1 [2HE-NECA, 2-hexynyl-5′-N-ethyl-carboxamindoadenosine]	–	did not change infarct size	–
Cc1cccc(C)c1NC(=O)C[C@H]1CCN(C(=O)c2cc(C(F)(F)F)cc(C(F)(F)F)c2)[C@@H](Cc2ccccc2)C1.O=C(O)C[C@H](O)C(=O)O (relative stereo) [R116301, (2R-trans)-4-[1-[3,5-bis(trifluoromethyl)benzoyl]-2-(phenylmethyl)-4-piperidinyl]-N-(2,6-dimethylphenyl)-1-acetamide (S)-Hydroxybutanedioate]	–	–	Ki [5]: 0.45 nM; selectivity toward NK(2) and NK(3) receptors [5]: over 200 fold
CCNC(=O)[C@H]1O[C@@H](n2cnc3c(N)ncnc32)[C@H](O)[C@@H]1O [NECA, 5′-N-ethyl-carboxamindoadenosine]	–	did not change infarct size	–
